The text below walks through data of the supplement of paper PMC5412046.

The subject of experiment [1] is SB.mhdgc-1. The experiment in a line: viability at highest tested concentration (MAXR) relative to DMSO; higher = less cytotoxic. The conditions noted are these: SB.mhdgc-1 (hereditary c.1380delA CDH1 gastric cancer). Put shortly: (§1)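 After 48 h of compound exposure, viability of hereditary or sporadic patient-derived gastric cancer cells was measured by CellTiter-Glo luminescence. Compounds were added in DMSO at 11 threefold-diluted concentrations to 500 cells per 1536 well. Results are viability normalised to DMSO, either at the highest concentration or as trapezoidal area under the curve.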

In experiment [2] the test system is SB.msgc-1. Described as above. As to conditions: SB.msgc-1 (sporadic gastric cancer). Put shortly: as §1
Experiment [3] has as its system SB.mhdgc-1. In words: area under the dose-response curve of % viability (trapezoidal, 11 doses) (% viability x log10 concentration); higher = less cytotoxic. The conditions noted are these: SB.mhdgc-1 (hereditary c.1380delA CDH1 gastric cancer). Put shortly: as §1
In experiment [4] the test system is SB.msgc-1. The description is as above. The conditions noted are these: SB.msgc-1 (sporadic gastric cancer). Put shortly:
as §1

Counter-ions that a name gives are not always drawn.

As a reminder, the viability is a read-out of living cells in per cent, often relative to untreated cells. Take `CC(=O)OCC(=O)[C@@]1(O)CC[C@H]2[C@@H]3CCC/4=C/C(=O)CC[C@]4(C)[C@H]3C(=O)C[C@]12C` [Cortisone acetate] (top concentration 46.0829 µM): the viability stood at 101% in the experiment with SB.mhdgc-1 [1] and 106% with SB.msgc-1 [2]. For the same compound, the “area under the dose-response curve” value with SB.mhdgc-1 [3] was determined as 493; with SB.msgc-1 [4] it was 560.
The corresponding values for `O=C(Nc1ccccc1-c1cn2c(CN3CCNCC3)csc2n1)c1cnc2ccccc2n1` [SRT1720] (top concentration 46.0829 µM) are 0.447%, 7.57%, 476 and 456.
`Cc1cc(Nc2cc(NC(=O)c3c(Cl)cccc3Cl)ccn2)nc(N)n1` [RO495] (top concentration 46.0829 µM): the viability in the experiment with SB.mhdgc-1 [1] came out at 58.6%; in the experiment on SB.msgc-1 [2] it was 50.6%. Moreover, the “area under the dose-response curve” value came out at 421 with SB.mhdgc-1 [3] and 374 in the experiment on SB.msgc-1 [4].
The corresponding values for `CC(C)OC(=O)/C1=C/N(CC(C)(C)C2=C1[NH]C3=CC=CC=C23)C(=O)C4=CC=C(F)C(=C4)F` [Turofexorate isopropyl] (top concentration 46.0829 µM) are 95.8%, 62.3%, 430 and 351.
The corresponding values for `COc1cc2c(Nc3ccc(Cl)c(Cl)c3F)ncnc2cc1OCC1C[C@@H]2CN(C)C[C@@H]2C1` (some centres undefined) [XL-647] (top concentration 46.0829 µM) are 1.67%, 49.7%, 293 and 225.
The corresponding values for `Fc1ccc(CNc2ncnc3ccc(F)cc23)cc1` [Spautin-1] (top concentration 46.0829 µM) are 67.9%, 61.4%, 505 and 470.
On to `CC(C)C(=O)Oc1ccc(CO)cc1[C@H](CCN(C(C)C)C(C)C)c1ccccc1` [Fesoterodine fumarate] (top concentration 46.0829 µM), for which the viability is 70.3% with SB.mhdgc-1 [1] and 86.3% with SB.msgc-1 [2]. For the same compound, the “area under the dose-response curve” value stood at 446 in the experiment on SB.mhdgc-1 [3] and 512 in the experiment with SB.msgc-1 [4].
The corresponding values for `CC1(C)C(=O)N(CCN2CCC(C(=O)c3ccc(F)cc3)CC2)c2ccccc21` (top concentration 46.0829 µM) are 4.82%, 62.9%, 466 and 581.
On to `Cc1ccc([S+](=O)([O-])Nc2nc3ccccc3nc2Nc2ccc3nsnc3c2)cc1` [XL-147] (top concentration 23.0415 µM), for which the viability came out at 43.8% with SB.mhdgc-1 [1] and 28.4% in the experiment on SB.msgc-1 [2]. The results for the “area under the dose-response curve” value with SB.mhdgc-1 [3] and in the experiment on SB.msgc-1 [4] were 397 and 385, respectively.
For `O=C(O)[C@H](Cc1c[nH]c2ccccc12)N1C(=O)c2ccccc2C1=O` [RG-108] (top concentration 92.1659 µM) the same measures were 80.9%, 95.3%, 545 and 501.
For `O=C(NCC1CN(c2ccc(N3CCOCC3=O)cc2)C(=O)O1)c1ccc(Cl)s1` (centres undefined) [Rivaroxaban] (top concentration 46.0829 µM) the same measures were 113%, 84.9%, 538 and 505.
For `CCOC(=O)C/1=C(C)/NC(=S)NC1C2=CC=CC(=C2)O` (centres undefined) [Monastrol] (top concentration 46.0829 µM) the same measures were 86.2%, 48.5%, 398 and 347.
As to `OC[C@H]1O[C@H](C[C@@H]1O)[N]2C=NC3=C2\N=C/NC[C@H]3O` [Pentostatin] (top concentration 46.0829 µM), the viability came to 90.5% in the experiment on SB.mhdgc-1 [1] and 67.5% in the experiment with SB.msgc-1 [2]. Further, the “area under the dose-response curve” value with SB.mhdgc-1 [3] is 480; in the experiment on SB.msgc-1 [4] it was 499.
The corresponding values for `CN[C@@H](C)C(=O)N[C@H]1CCCC[C@H]2CC[C@@H](C(=O)N[C@@H](c3ccccc3)c3cn(CCCCc4ccc(CCCCn5cc([C@@H](NC(=O)[C@@H]6CC[C@@H]7CCCC[C@H](NC(=O)[C@H](C)NC)C(=O)N76)c6ccccc6)nn5)cc4)nn3)N2C1=O` [SM-164] (top concentration 46.0829 µM) are 2.4%, 49.1%, 283 and 449.
As to `C=CC(=O)Nc1cccc(Sc2nc(Nc3ccc(N4CCN(C)CC4)cc3)ncc2Cl)c1` [WZ-8040] (top concentration 46.0829 µM), the results for the viability in the experiment on SB.mhdgc-1 [1] and in the experiment on SB.msgc-1 [2] were 1.92% and 7.02%, respectively. Moreover, the “area under the dose-response curve” value in the experiment with SB.mhdgc-1 [3] was 473; with SB.msgc-1 [4], 320.
Turning to `CN[C@H](CC(C)C)C(=O)N[C@H]1C(=O)N[C@@H](CC(N)=O)C(=O)N[C@H]2C(=O)N[C@H]3C(=O)N[C@H](C(=O)N[C@H](C(=O)O)c4cc(O)cc(O)c4-c4cc3ccc4O)[C@H](O)c3ccc(c(Cl)c3)Oc3cc2cc(c3O[C@@H]2O[C@H](CO)[C@@H](O)[C@H](O)[C@H]2O[C@H]2C[C@](C)(N)[C@H](O)[C@H](C)O2)Oc2ccc(cc2Cl)[C@H]1O` [Vancomycin hydrochloride] (top concentration 46.0829 µM), the viability in the experiment on SB.mhdgc-1 [1] worked out at 73.2%; in the experiment with SB.msgc-1 [2], 99.9%. The “area under the dose-response curve” value with SB.mhdgc-1 [3] is 503; with SB.msgc-1 [4] it was 521.
The corresponding values for `C[N]1C2=C(SC(=C2)[S+](C)[O-])C\3=C1C(=O)N(CC4=CC(=CC=C4)N)\N=C3` (centres undefined) (top concentration 46.0829 µM) are 81.9%, 91%, 512 and 535.
Turning to `COc1cc2c(Oc3ccc(NC(=O)C4(C(=O)Nc5ccc(F)cc5)CC4)cc3F)ccnc2cc1OCCCN1CCOCC1` [Foretinib] (top concentration 46.0829 µM), the results for the viability in the experiment on SB.mhdgc-1 [1] and in the experiment on SB.msgc-1 [2] were 2.84% and 0.558%, respectively. The “area under the dose-response curve” value in the experiment on SB.mhdgc-1 [3] amounted to 386; with SB.msgc-1 [4], 397.
As for `CC1CNc2c(cccc2[S+](=O)([O-])N[C@@H](CCCNC(=N)N)C(=O)N2CC[C@@H](C)C[C@@H]2C(=O)O)C1` (some centres undefined) [Argatroban] (top concentration 46.0829 µM), the viability with SB.mhdgc-1 [1] came out at 18.3%; in the experiment on SB.msgc-1 [2] it was 49.1%. In addition, the “area under the dose-response curve” value was found to be 402 in the experiment with SB.mhdgc-1 [3] and 525 in the experiment with SB.msgc-1 [4].
The corresponding values for `O=C(O)c1cccc(-c2noc(-c3ccccc3F)n2)c1` [PTC-124] (top concentration 46.0829 µM) are 114%, 47.4%, 614 and 376.
As to `CNc1nccc(-c2cccnc2Oc2cc(C(=O)Nc3cccc(C(F)(F)F)c3)ccc2C)n1` [AMG-Tie2-1] (top concentration 46.0829 µM), the viability in the experiment with SB.mhdgc-1 [1] amounted to 28.4%; with SB.msgc-1 [2] it was 37.3%. The “area under the dose-response curve” value in the experiment with SB.mhdgc-1 [3] stood at 505; in the experiment on SB.msgc-1 [4], 494.
